Measured values from US8865672B2, “Prevention of tissue ischemia and related methods” (The United States of America, as represented by the …, priority 2006, dated 2014).

Experiments:
[1] = system: myosin light chain-2 (MLC) in HAVSMC; assay: Myosin light chain phosphorylation in VSMC; type: cell-based, human; details: S1P 100 nM, DEA/NO 10 μM, TSP1 2.2 nM
Experimental: VSMC were plated at 90% confluence and grown in smooth muscle growth media containing 2% FBS overnight. To stimulate MLC phosphorylation, sphingosine-1-phosphate (SIP; Biomol International, Plymouth, Pa.) was added at a final concentration of 100 nM. The nitric oxide donor DEA/NO was added at a final concentration of 10 μM. For TSP1 pretreatment, cells were incubated with 2.2 nM TSP1 before addition of SIP or DEA/NO. Cells were subsequently washed twice with PBS and lysed immediately in 1×SDS sample buffer containing 10 μg/mL leupeptin, 10 μg/mL aprotinin, 1 mM Na3VO4, and 40 mM NaF. Lysates prepared in the SDS sample buffer described above were electrophoresed in 4-12% BisTris NuPAGE gels and transferred to PVDF membranes prior to immunoblotting with rabbit polyclonal antibodies against myosin light chain-2 (MLC) and phospho-MLC2 (T18/S19, Cell Signaling Technology, Danvers, Mass.).

[2] = system: murine ASMC (WT, CD36 null, CD47 null); assay: Murine ASMC adhesion on type I collagen; type: cell-based, mouse; details: CD47 null MASMC
Experimental: Murine ASMC were obtained from aortic segments harvested sterilely from C57B1/6 CD47 null or CD36 null mice as described (Ray et al., Methods Cell Sci 23:185-188, 2001) and cultured in SM-GM (Cambrex)+20% FCS. In the case of CD36 null cells, culture flasks were pre-coated with 1% gelatin prior to cell plating. Wild type C57B1/6 ASMC cultures were prepared as previously described (Isenberg et al., Matrix Biol 24:110-123, 2005). Cell culture purity was determined by immunohistochemistry staining for α-smooth muscle actin. Cells were used within passage 1 to 4 to minimize overgrowth of other cell types.
Cell adhesion was carried out in 96-well culture plates. After pre-coating wells with type I collagen (3 μg/ml in DPBS) harvested cells were plated at a density of 1×10^4 cells/well in medium plus 0.1% BSA and treatment agents and incubated in 5% CO2 for 1 h. Wells were washed with PBS and cells fixed with 1% glutaraldehyde for 10 min., washed and stained with 1% crystal violet for 20 min. Excess stain was rinsed away, adherent cells treated with 10% acetic acid, and plates read at 570 nm.

## TSP1: thrombospondin-1 prepared from human platelets
[1]
  MLC dephosphorylation induced by NO: partially restored MLC phosphorylation
[2]; 22 nM
  NO-stimulated adhesion: only moderately inhibited
[2]; concentrations up to 2.2 nM
  NO-stimulated adhesion: had no effect
